# pEC50: −log10 of the molar value.
# Experiments:
# human Y5 receptor = target: T1, human Y5 receptor (Homo sapiens, UniProt Q15761); assay: NPY receptor functional assay (cAMP, HEK-CNG cells, ACTOne membrane potential dye); format: cell-based; details: NPY5R pEC50, HEK-CNG cells; standard NPY; species (human or rat) not given
# T1 sequence (Q15761 1-445): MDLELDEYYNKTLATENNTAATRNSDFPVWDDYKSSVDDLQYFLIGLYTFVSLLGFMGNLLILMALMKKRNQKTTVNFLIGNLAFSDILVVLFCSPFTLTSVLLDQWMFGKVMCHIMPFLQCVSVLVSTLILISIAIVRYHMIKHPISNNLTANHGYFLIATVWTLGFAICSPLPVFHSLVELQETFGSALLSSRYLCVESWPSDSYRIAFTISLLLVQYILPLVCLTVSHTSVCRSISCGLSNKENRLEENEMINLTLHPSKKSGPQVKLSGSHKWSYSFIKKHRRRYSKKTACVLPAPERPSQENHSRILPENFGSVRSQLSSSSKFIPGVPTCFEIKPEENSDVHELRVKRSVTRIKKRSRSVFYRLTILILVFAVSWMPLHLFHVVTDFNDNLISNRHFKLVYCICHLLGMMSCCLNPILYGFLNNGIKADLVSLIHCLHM
# In short: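 HEK-CNG cells stably expressing each human receptor; peptides added in triplicate for 50 minutes at room temperature, with agonism read as decreased isoproterenol-induced membrane potential dye signal (final/initial read).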
# [1] = In vitro stability in subcutaneous (SC) tissue homogenates; format: in vitro ADME; details: subcutaneous tissue homogenate, pH 7.4; human SC tissue homogenate 1.0 mg protein/mL, 10 mcM peptide, 37° C.; read-out: (H)SC tissue stability t½ (converted)
# Experimental: In vitro incubations in subcutaneous (SC) tissue homogenates were used to characterize the ability of peptides to resist pre-systemic degradation by proteases and peptidases after SC administration. […] Peptides with high SC bioavailability are stable in this assay, while peptides with low SC bioavailability are unstable in this assay.
# Human SC tissue was homogenized in cold 25 mM HEPES buffer (pH 7.4, 10-fold volume based on sample weight), and then filtered through a double layer of cheesecloth. The filtrates were aliquoted, flash frozen on a methanol/dry ice bath and stored at −80° C. The protein concentration of each pooled batch was determined using the BCA protein assay. Thawed stocks of human SC tissue homogenates were diluted to 1.0 mg protein/mL in 25 mM HEPES buffer (pH 7.4) and aliquoted into a 96-well plate. The diluted SC homogenates were pre-warmed for 10 minutes at 37° C. […] Reactions were maintained at 37° C. in a shaking water bath. […] Quenched samples were centrifuged at 2178×g for 10 min and then a portion of the supernatants were transferred to a clean 96-well plate and diluted 1:10 with water. Samples were analyzed by UPLC-MS/MS.
structure (smiles),measurement,setting,value
CC(C)C[C@H](NC(=O)[C@H](Cc1ccc(O)cc1)NC(=O)[C@H](Cc1c[nH]cn1)NC(=O)[C@H](CCCNC(=N)N)NC(=O)[C@H](CC(C)C)NC(=O)[C@H](CC(=O)O)NC(=O)[C@@H](CCCCNC(=O)CC[C@H](NC(=O)CC[C@H](NC(=O)CCCCCCCCCCCCCCCCCCC(=O)O)C(=O)O)C(=O)O)NC(=O)[C@H](Cc1ccc(O)cc1)NC(=O)[C@H](Cc1ccc(O)cc1)NC(=O)[C@H](CCCNC(=N)N)NC(=O)[C@H](CC(N)=O)NC(=O)[C@H](Cc1c[nH]c2ccccc12)NC(=O)[C@H](CCC(=O)O)NC(=O)[C@H](CCC(=O)O)NC(=O)[C@@H]1CCCN1C(=O)[C@H](CO)NC(=O)[C@H](C)NC(=O)[C@H](CC(=O)O)NC(=O)[C@H](CCCCN)NC(=O)CNC(=O)[C@@H]1CCCN1C(=O)[C@H](C)NC(=O)[C@H](CCC(=O)O)NC(=O)[C@@H]1CCCN1C(=O)[C@H](CCCCN)NC(=O)[C@@H]1CCCN1)C(=O)N[C@@H](CC(N)=O)C(=O)N[C@@H](Cc1c[nH]c2ccccc12)C(=O)N[C@@H](CC(C)C)C(=O)N[C@H](C(=O)N[C@@H](CCCNC(=N)N)C(=O)N[C@@H](CCC(N)=O)C(=O)N[C@@H](CCCNC(=N)N)C(=O)N[C@@H](Cc1ccccc1)C(N)=O)[C@@H](C)O [Compound A14],pEC50,human Y5 receptor,8.30
same,half-life at 10 mcM,[1],4.5 h

# From patent US12122816B2, “Long acting peptide tyrosine tyrosine (PYY) analogs and methods of use” (Intarcia Therapeutics, Inc., priority 2020, dated 2024)
